According to PubChem BioAssay AID1919009 (Molecular Pharmacology Branch, DTP, NCI, 2023):
pIC50: −log10 of the molar value. Values joined by “and” are separate entries in the source; they are usually repeats but may differ in a detail not shown here. Identical values can stand only once.

Test system: K24384-001-R-PDC complex spheroid growth
Assay: Anticancer human tumor K24384-001-R-PDC patient-derived pancreatic adenocarcinoma cell line growth inhibition [AhR]
Conditions: for viability, T/C: stronger effect = lower value
Description: Multicellular complex tumor spheroid response to aryl hydrocarbon receptor antagonists in combination with a variety of drugs and investigational agents in selected tumor cell lines
The current study was undertaken to assess response to aryl hydrocarbon receptor antagonists in combination with standard-of-care drugs and investigational agents in solid tumor complex spheroid models. Complex spheroids include a stromal component modeled by human endothelial cells (HUVEC) and fibroblasts modeled by human mesenchymal stem cells (MSCs). The concentration ranges selected for each drug and investigational agent were based upon clinically achievable concentrations if the clinical Cmax of the agent was known.
Compounds. The drugs and investigational agents: BAY 2416964 (NSC825713), GNF351 (NSC835774), CH-223191 (NSC835775), CPI-455 (NSC825282), aza-TdCyd (NSC777586), decitabine (NSC127716), belinostat (NSC758774), entinostat (NSC756642), pevonedistat (NSC761192), tazemetostat (NSC777109), talazoparib (NSC765396), olaparib (NSC753686), selinexor (NSC780203), nedisertib (M3814, NSC802822), bortezomib (NSC756655), venetoclax (NSC766270), doxorubicin (NSC123127), elimusertib (BAY189344, NSC800525), ceralasertib (AZD6738, NSC777638), TAK-243 (NSC785004), alisertib (NSC759677), etoposide (NSC141540), topotecan (NSC609699), eribulin (NSC707389), gemcitabine (NSC613327), carboplatin (NSC241240), cisplatin (NSC119875), and SN-38 (NSC673596) were obtained from the National Cancer Institute (NCI) Developmental Therapeutics Program Chemical Repository (32). The FDA-approved anticancer drug set is available from the Developmental Therapeutics Program at https://dtp.cancer.gov/organization/dscb/obtaining/available plates.htm. […] The stock solutions were prepared in dimethyl sulfoxide (DMSO, Sigma-Aldrich, St. Louis, MO, cat. D2650), except for the platinum compounds which were prepared in saline (Quality Biological, Gaithersburg, MD, cat. 114-055-101), at 800-fold the tested concentration and stored at -70 degrees C prior to their use. All drugs and investigational agents were tested over a range starting from a high concentration at or near the clinical Cmax and decreasing in half-log increments. If the clinical Cmax for an agent had not been determined, the highest concentration tested was 10 microM (Table 1).
Cell Culture. All cells were maintained in an incubator at 37 degrees C and 5% CO2 with 95% humidity. The PDC lines were cultured according to standard operating procedures established by the NCI PDMR (https://pdmr.cancer.gov). Briefly, all PDCs were thawed and cultured in Matrigel-coated flasks prepared with a working solution of 1X Ham's F-12 nutrient mix, without supplementation (Invitrogen, Waltham, MA, cat. 11765054), 100 U/mL penicillin-streptomycin (Invitrogen, cat. 15140122), and 2.5% Matrigel (Corning Inc., Corning, NY, cat. 354248) for the first three passages. All PDCs were cultured in complete DMEM/F-12 media containing advanced DMEM/F-12 (Invitrogen, cat. 12634028), 4.9% defined fetal bovine serum, heat inactivated (HyClone Laboratories Inc., Logan, UT, cat. SH30070.03HI), 389 ng/mL hydrocortisone (Sigma-Aldrich, cat. H4001), 9.7 ng/mL human EGF recombinant protein (Invitrogen, cat. PHG0313), 23.4 microg/mL adenine (Sigma-Aldrich, cat. A2786), 97.3 U/mL penicillin-streptomycin (Invitrogen, cat. 15140122), 1.9 mM L-glutamine (Invitrogen, cat. 25030081), and 9.7 microM Y-27632 dihydrochloride (Tocris Bioscience, Bristol, United Kingdom, cat. 1254). The PDCs were cultured in complete DMEM/F12 media without 10 microM Y-27632 dihydrochloride for at least two passages prior to the screen. The established cell lines NCI-H1341 and […] were cultured in DMEM/F-12, HEPES (Invitrogen, cat. 11330032), 5% defined fetal bovine serum (HyClone Laboratories Inc., cat. SH30070.03), ITS premix universal culture supplement [insulin (5 microg/mL), transferrin (5 microg/mL), and selenious acid (5 ng/mL)] […]
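Throughout, for viability, T/C: percent of DMSO vehicle-treated spheroid viability set as 100%.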

pIC50 (curve of compound)	Structure (SMILES)	viability, T/C (compound 0.0316 µM)	viability, T/C (compound 0.1 µM)	viability, T/C (compound 0.316 µM)	viability, T/C (compound 1 µM)	viability, T/C (compound 3.16 µM)	viability, T/C (compound 10 µM)	further results
7.26 and 7.32 and 6.90	COc1cccc2c1C(=O)c1c(O)c3c(c(O)c1C2=O)CC(O)(C(=O)CO)CC3OC1CC(N)C(O)C(C)O1 (stereo not drawn)	55.9% and 53.8% and 60.3%	42.6% and 43.3% and 55.6%	27.5% and 27% and 27.3%	7.51% and 8.21% and 8.1%	2.73% and 2.56% and 3.17%	7.73% and 8.61% and 11.3%	
	Cc1ccccc1N=Nc1ccc(NC(=O)c2ccnn2C)c(C)c1							pIC50 (compound alone, run of 06/14/2022): < 5.00
	Cc1cncc(-c2nc(NCCc3c[nH]c4ccccc34)c3ncn(C(C)C)c3n2)c1						10.4% [middle of 20 runs]	IC50 (compound alone, run of 06/06/2022): 5.54 µM [middle of 23 runs]
< 7.00	Cn1ncnc1C1c2n[nH]c(=O)c3cc(F)cc(c23)NC1c1ccc(F)cc1 (stereo not drawn)	97% and 97.8% and 98.7%	82% and 81.5% and 75.4%					viability, T/C (compound 0.000316 µM): 104% and 93.7% and 94.2%; viability, T/C (compound 0.001 µM): 117% and 105% and 102%; viability, T/C (compound 0.00316 µM): 93.1% and 104% (2×); viability, T/C (compound 0.01 µM): 91.7% and 102% and 105%
5.59 and 5.85 and 5.56	NS(=O)(=O)OCC1CC(n2ccc3c(NC4CCc5ccccc54)ncnc32)CC1O (stereo not drawn)	102% and 101% and 100%	119% and 96.5% and 107%	107% (2×) and 102%	95.7% and 59% and 75.3%	40.4% and 32.9% and 49.2%	27.5% and 21.6% and 24.1%	
5.59 and 5.64 and 5.67	Nc1ccccc1NC(=O)c1ccc(CNC(=O)OCc2cccnc2)cc1	94% and 112% and 106%	98% and 108% and 107%	85% and 93.4% and 96.5%	78.2% and 67.5% and 60.9%	43.8% and 43.9% and 45.6%	8.72% and 6.99% and 9.95%	
6.34 and 6.38 and 6.72	Nc1ccn(C2OC(CO)C(O)C2(F)F)c(=O)n1 (stereo not drawn)	75.8% and 84.6% and 71%	67.7% and 76.7% and 59.5%	50.6% and 52.6% and 41.6%	42.8% and 39.7% and 32.8%	37.3% and 40.7% and 22.7%	28.5% and 31.3% and 20.2%	
< 6.00	Nc1ncn(C2CC(O)C(CO)O2)c(=O)n1 (stereo not drawn)	108% and 95.7% and 101%	95.2% and 101% and 82.9%	87.2% and 88.8% and 84.9%	79.4% and 79.5% and 76.8%			viability, T/C (compound 0.00316 µM): 111% and 99.4% and 104%; viability, T/C (compound 0.01 µM): 94.1% and 108% and 112%
< 6.52	Nc1ncn(C2CC(O)C(CO)S2)c(=O)n1 (stereo not drawn)							viability, T/C (compound 0.000949 µM): 110% and 102% and 115%; viability, T/C (compound 0.003 µM): 104% and 111% and 121%; viability, T/C (compound 0.00949 µM): 105% and 93% and 90.2%; viability, T/C (compound 0.03 µM): 98% and 87.8% and 92.5%; viability, T/C (compound 0.0949 µM): 80.2% and 77.9% and 76.2%; viability, T/C (compound 0.3 µM): 81.4% and 64.2% and 70.1%
5.68 and 5.64 and 5.70	O=C(C=Cc1cccc(S(=O)(=O)Nc2ccccc2)c1)NO	104% and 118% and 108%	104% and 115% and 114%	96.2% and 116% and 99.6%	78.5% and 87.3% and 81.8%	34.4% and 35.4% and 29.5%	8.12% and 8.37% and 2.97%	
6.61 and 6.37	O=C(C=Cn1cnc(-c2cc(C(F)(F)F)cc(C(F)(F)F)c2)n1)NNc1cnccn1							viability, T/C (compound 0.00949 µM): 103% and 108% and 124%; viability, T/C (compound 0.03 µM): 102% and 118% and 111%; viability, T/C (compound 0.0949 µM): 83.7% and 73.7% and 79.4%; viability, T/C (compound 0.3 µM): 42.4% and 48.4% and 54.7%; viability, T/C (compound 0.949 µM): 29.9% and 28.1% and 41.4%; viability, T/C (compound 3 µM): 22.9% and 24.3% and 29.5%
< 5.00	O=C(c1cc(Cc2n[nH]c(=O)c3ccccc23)ccc1F)N1CCN(C(=O)C2CC2)CC1	104% and 103% and 116%	132% and 100% and 105%	105% and 95.4% and 115%	95.4% and 94.5% and 90.4%	88.2% and 96.2% and 90.5%	82.8% and 62.4% and 76%	
